Test results reported in patent publication US20170197979A1, “BENZOTHIADIAZOLAMINES” (BAYER PHARMA AKTIENGESELLSCHAFT, priority 2014, published 2017).

Target: T1, human full-length MKNK1 (Homo sapiens, UniProt Q9BUB5, T385D)
T1 construct: GST (N); purchased Carna Biosciences 02-145; host or cells: insect cells (baculovirus expression system)
Test: MKNK1 kinase high ATP assay (TR-FRET)
Type: biochemical
Settings: TR-FRET, high ATP (2 mM final), 15 min preincubation with enzyme, GST-MKNK1 (T344D); read-out: MKNK1 IC50
Description: MKNK1 Kinase High ATP Assay
MKNK1-inhibitory activity at high ATP of compounds of the present invention after their preincubation with MKNK1 was quantified employing the TR-FRET-based MKNK1 high ATP assay as described in the following paragraphs.
A recombinant fusion protein of Glutathione-S-Transferase (GST, N-terminally) and human full-length MKNK1 (amino acids 1-424 and T344D of accession number BAA 19885.1), expressed in insect cells using baculovirus expression system and purified via glutathione sepharose affinity chromatography, was purchased from Carna Biosciences (product no 02-145) and used as enzyme. As substrate for the kinase reaction the biotinylated peptide biotin-Ahx-IKKRKLTRRKSLKG (C-terminus in amide form) was used, which can be purchased e.g. from the company Biosyntan (Berlin-Buch, Germany).
For the assay 50 nL of a 100 fold concentrated solution of the test compound in DMSO was pipetted into a black low volume 384 well microtiter plate (Greiner Bio-One, Frickenhausen, Germany), 2 μL of a solution of MKNK1 in aqueous assay buffer [50 mM HEPES pH 7.5, 5 mM MgCl2, 1.0 mM dithiothreitol, 0.005% (v/v) Nonidet-P40 (Sigma)] was added and the mixture was incubated for 15 min at 22° C. to allow pre-binding of the test compounds to the enzyme before the start of the kinase reaction. Then the kinase reaction was started by the addition of 3 μL of a solution of adenosine-tri-phosphate (ATP, 3.3 mM=>final conc. in the 5 μL assay volume is 2 mM) and substrate (0.1 μM=>final conc. in the 5 μL assay volume is 0.06 μM) in assay buffer and the resulting mixture was incubated for a reaction time of 30 min at 22° C. The concentration of MKNK1 was adjusted depending of the activity of the enzyme lot and was chosen appropriate to have the assay in the linear range, typical concentrations were in the range of 0.003 μg/mL. The reaction was stopped by the addition of 5 μL of a solution of TR-FRET detection reagents (5 nM streptavidine-XL665 [Cisbio Bioassays, Codolet, France] and 1 nM anti-ribosomal protein S6 (pSer236)-antibody from Invitrogen [#44921G] and 1 nM LANCE EU-W1024 labeled ProteinG [Perkin-Elmer, product no. AD0071]) in an aqueous EDTA-solution (100 mM EDTA, 0.1% (w/v) bovine serum albumin in 50 mM HEPES pH 7.5).
The resulting mixture was incubated for 1 h at 22° C. to allow the formation of complex between the phosphorylated biotinylated peptide and the detection reagents. Subsequently the amount of phosphorylated substrate was evaluated by measurement of the resonance energy transfer from the Eu-chelate to the streptavidine-XL. Therefore, the fluorescence emissions at 620 nm and 665 nm after excitation at 350 nm were measured in a TR-FRET reader, e.g. a Rubystar (BMG Labtechnologies, Offenburg, Germany) or a Viewlux (Perkin-Elmer). The ratio of the emissions at 665 nm and at […] was taken as the measure for the amount of phosphorylated substrate. The data were normalised (enzyme reaction without inhibitor=0% inhibition, all other assay components but no enzyme=100% inhibition).

T1 sequence (Q9BUB5 1-424 isoform Q9BUB5-2 T344D): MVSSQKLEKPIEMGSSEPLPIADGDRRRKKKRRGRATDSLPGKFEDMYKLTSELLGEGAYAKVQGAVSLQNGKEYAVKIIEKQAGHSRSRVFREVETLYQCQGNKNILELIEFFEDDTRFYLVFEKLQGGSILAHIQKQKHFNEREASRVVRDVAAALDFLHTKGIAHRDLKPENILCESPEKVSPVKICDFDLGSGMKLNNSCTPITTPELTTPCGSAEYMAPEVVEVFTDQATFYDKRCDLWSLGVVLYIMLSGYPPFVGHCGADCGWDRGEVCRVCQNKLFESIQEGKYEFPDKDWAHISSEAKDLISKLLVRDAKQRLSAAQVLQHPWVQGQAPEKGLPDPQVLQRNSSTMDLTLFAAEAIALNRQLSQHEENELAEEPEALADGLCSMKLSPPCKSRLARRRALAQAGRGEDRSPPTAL

SMILES	IC50 [nM]
CN1CCN(C(=O)[C@H]2CCc3c(sc4ncnc(Nc5ccc6nnsc6c5)c34)C2)CC1 [Example 34, [(7S)-4-(1,2,3-Benzothiadiazol-6-ylamino)-5,6,7,8-tetrahydro[1]benzothieno[2,3-d]pyrimidin-7-yl](4-methylpiperazin-1-yl)methanone]	13
COc1cc2nnsc2cc1Nc1ncnc2sc3c(c12)CC[C@H](C(=O)N(C)C)C3 [Example 35, (7S)-4-[(5-Methoxy-1,2,3-benzothiadiazol-6-yl)amino]-N,N-dimethyl-5,6,7,8-tetrahydro[1]benzothieno[2,3-d]pyrimidine-7-carboxamide]	1.3
COc1cc2nnsc2cc1Nc1ncnc2sc3c(c12)CC[C@H](C(=O)N(C)CC(C)(C)O)C3 [Example 36, (7S)—N-(2-Hydroxy-2-methylpropyl)-4-[(5-methoxy-1,2,3-benzothiadiazol-6-yl)amino]-N-methyl-5,6,7,8-tetrahydro[1]benzothieno[2,3-d]pyrimidine-7-carboxamide]	0.8
COc1cc2nnsc2cc1Nc1ncnc2sc3c(c12)CC[C@H](C(=O)N(C)C(C)C)C3 [Example 37, (7S)-4-[(5-Methoxy-1,2,3-benzothiadiazol-6-yl)amino]-N-methyl-N-(propan-2-yl)-5,6,7,8-tetrahydro[1]benzothieno[2,3-d]pyrimidine-7-carboxamide]	1.2
CCN(CCO)C(=O)[C@H]1CCc2c(sc3ncnc(Nc4cc5snnc5cc4OC)c23)C1 [Example 38, (7S)—N-Ethyl-N-(2-hydroxyethyl)-4-[(5-methoxy-1,2,3-benzothiadiazol-6-yl)amino]-5,6,7,8-tetrahydro[1]benzothieno[2,3-d]pyrimidine-7-carboxamide]	1.1
COCCN(C)C(=O)[C@H]1CCc2c(sc3ncnc(Nc4cc5snnc5cc4OC)c23)C1 [Example 39, (7S)-4-[(5-Methoxy-1,2,3-benzothiadiazol-6-yl)amino]-N-(2-methoxyethyl)-N-methyl-5,6,7,8-tetrahydro[1]benzothieno[2,3-d]pyrimidine-7-carboxamide]	0.6
COc1cc2nnsc2cc1Nc1ncnc2sc3c(c12)CC[C@H](C(=O)N(C)CCNC(=O)OC(C)(C)C)C3 [Example 40, tert-Butyl {2-[({(7S)-4-[(5-methoxy-1,2,3-benzothiadiazol-6-yl)amino]-5,6,7,8-tetrahydro[1]benzothieno[2,3-d]pyrimidin-7-yl}carbonyl)(methyl)amino]ethyl}carbamate]	0.8
COc1cc2nnsc2cc1Nc1ncnc2sc3c(c12)CC[C@H](C(=O)N1CC(N(C)C)C1)C3 [Example 41, [3-(Dimethylamino)azetidin-1-yl]{(7S)-4-[(5-methoxy-1,2,3-benzothiadiazol-6-yl)amino]-5,6,7,8-tetrahydro[1]benzothieno[2,3-d]pyrimidin-7-yl}methanone]	0.6
COc1cc2nnsc2cc1Nc1ncnc2sc3c(c12)CC[C@H](C(=O)N(C)CC(=O)N(C)C)C3 [Example 42, (7S)—N-[2-(Dimethylamino)-2-oxoethyl]-4-[(5-methoxy-1,2,3-benzothiadiazol-6-yl)amino]-N-methyl-5,6,7,8-tetrahydro[1]benzothieno[2,3-d]pyrimidine-7-carboxamide]	0.8

Next, values leading:

IC50 [nM]	SMILES
1.7	COc1cc2nnsc2cc1Nc1ncnc2sc3c(c12)CC[C@H](C(=O)N(C)CCCN(C)C)C3 [Example 43, (7S)—N-[3-(Dimethylamino)propyl]-4-[(5-methoxy-1,2,3-benzothiadiazol-6-yl)amino]-N-methyl-5,6,7,8-tetrahydro[1]benzothieno[2,3-d]pyrimidine-7-carboxamide]
1.7	COc1cc2nnsc2cc1Nc1ncnc2sc3c(c12)CC[C@H](C(=O)N1CC(C#N)C1)C3 [Example 44, 1-({(7S)-4-[(5-Methoxy-1,2,3-benzothiadiazol-6-yl)amino]-5,6,7,8-tetrahydro[1]benzothieno[2,3-d]pyrimidin-7-yl}carbonyl)azetidine-3-carbonitrile]
1.5	COc1cc2nnsc2cc1Nc1ncnc2sc3c(c12)CC[C@H](C(=O)N1CC(C)(O)C1)C3 [Example 45, (3-Hydroxy-3-methylazetidin-1-yl){(7S)-4-[(5-methoxy-1,2,3-benzothiadiazol-6-yl)amino]-5,6,7,8-tetrahydro[1]benzothieno[2,3-d]pyrimidin-7-yl}methanone]
182	COc1cc2nnsc2cc1Nc1ncnc2sc3c(c12)CC[C@H](C(=O)N1CCC1)C3 [Example 46, Azetidin-1-yl{(7S)-4-[(5-methoxy-1,2,3-benzothiadiazol-6-yl)amino]-5,6,7,8-tetrahydro[1]benzothieno[2,3-d]pyrimidin-7-yl}methanone]
7.6	COc1cc2nnsc2cc1Nc1ncnc2sc3c(c12)CC[C@H](C(=O)N1CCC(N(C)C)CC1)C3 [Example 47, [4-(Dimethylamino)piperidin-1-yl]{(7S)-4-[(5-methoxy-1,2,3-benzothiadiazol-6-yl)amino]-5,6,7,8-tetrahydro[1]benzothieno[2,3-d]pyrimidin-7-yl}methanone]
2	COc1cc2nnsc2cc1Nc1ncnc2sc3c(c12)CC[C@H](C(=O)N1CCC(N(C)CCN(C)C)CC1)C3 [Example 48, (4-{[2-(dimethylamino)ethyl](methyl)amino}piperidin-1-yl){(7S)-4-[(5-methoxy-1,2,3-benzothiadiazol-6-yl)amino]-5,6,7,8-tetrahydro[1]benzothieno[2,3-d]pyrimidin-7-yl}methanone]
1.7	COc1cc2nnsc2cc1Nc1ncnc2sc3c(c12)CC[C@H](C(=O)N1CCN(CCN(C)C)CC1)C3 [Example 49, {4-[2-(Dimethylamino)ethyl]piperazin-1-yl}{(7S)-4-[(5-methoxy-1,2,3-benzothiadiazol-6-yl)amino]-5,6,7,8-tetrahydro[1]benzothieno[2,3-d]pyrimidin-7-yl}methanone]
11	COc1cc2nnsc2cc1Nc1ncnc2sc3c(c12)CC[C@H](C(=O)N1CCN(C)CC1)C3 [Example 50, {(7S)-4-[(5-Methoxy-1,2,3-benzothiadiazol-6-yl)amino]-5,6,7,8-tetrahydro[1]benzothieno[2,3-d]pyrimidin-7-yl}(4-methylpiperazin-1-yl)methanone]
3.3	COc1cc2nnsc2cc1Nc1ncnc2sc3c(c12)CC[C@H](C(=O)N1CC[C@H](N(C)C)C1)C3 [Example 51, [(3S)-3-(Dimethylamino)pyrrolidin-1-yl]{(7S)-4-[(5-methoxy-1,2,3-benzothiadiazol-6-yl)amino]-5,6,7,8-tetrahydro[1]benzothieno[2,3-d]pyrimidin-7-yl}methanone]
2.1	COc1cc2nnsc2cc1Nc1ncnc2sc3c(c12)CC[C@H](C(=O)N1CC[C@@H](N(C)C)C1)C3 [Example 52, [(3R)-3-(Dimethylamino)pyrrolidin-1-yl]{(7S)-4-[(5-methoxy-1,2,3-benzothiadiazol-6-yl)amino]-5,6,7,8-tetrahydro[1]benzothieno[2,3-d]pyrimidin-7-yl}methanone]
3.8	COc1cc2nnsc2cc1Nc1ncnc2sc3c(c12)CC[C@H](C(=O)N1C[C@@H]2C[C@H]1CN2C)C3 [Example 53, {(7S)-4-[(5-Methoxy-1,2,3-benzothiadiazol-6-yl)amino]-5,6,7,8-tetrahydro[1]benzothieno[2,3-d]pyrimidin-7-yl}[(1S,4S)-5-methyl-2,5-diazabicyclo[2.2.1]hept-2-yl]methanone]
9.2	COc1cc2nnsc2cc1Nc1ncnc2sc3c(c12)CC[C@H](C(=O)N1CC(N2CCCCC2)C1)C3 [Example 54, {(7S)-4-[(5-Methoxy-1,2,3-benzothiadiazol-6-yl)amino]-5,6,7,8-tetrahydro[1]benzothieno[2,3-d]pyrimidin-7-yl}[3-(piperidin-1-yl)azetidin-1-yl]methanone]
